{"source": "ChEMBL document CHEMBL3627665", "about": "“Challenges and Opportunities in the Discovery of New Therapeutics Targeting the Kynurenine Pathway” (J Med Chem, 2015)", "key": {"[1]": {"molecular_target": "Tryptophan 2,3-dioxygenase (Mus musculus, UniProt P48776)", "sequence (P48776 whole entry)": "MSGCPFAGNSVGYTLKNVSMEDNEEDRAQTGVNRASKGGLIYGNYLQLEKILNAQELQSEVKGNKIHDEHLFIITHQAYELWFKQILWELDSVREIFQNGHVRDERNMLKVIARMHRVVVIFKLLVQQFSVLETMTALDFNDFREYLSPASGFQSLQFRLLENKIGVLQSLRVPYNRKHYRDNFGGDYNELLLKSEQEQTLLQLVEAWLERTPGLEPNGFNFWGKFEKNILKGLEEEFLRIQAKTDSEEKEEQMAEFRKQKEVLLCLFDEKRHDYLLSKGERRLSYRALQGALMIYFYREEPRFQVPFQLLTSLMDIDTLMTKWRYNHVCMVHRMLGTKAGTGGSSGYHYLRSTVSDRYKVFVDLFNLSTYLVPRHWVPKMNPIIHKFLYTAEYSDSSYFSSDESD", "assay": "Inhibition of mouse TDO"}, "[2]": {"molecular_target": "Indoleamine 2,3-dioxygenase 1 (Mus musculus, UniProt P28776)", "sequence (P28776 whole entry)": "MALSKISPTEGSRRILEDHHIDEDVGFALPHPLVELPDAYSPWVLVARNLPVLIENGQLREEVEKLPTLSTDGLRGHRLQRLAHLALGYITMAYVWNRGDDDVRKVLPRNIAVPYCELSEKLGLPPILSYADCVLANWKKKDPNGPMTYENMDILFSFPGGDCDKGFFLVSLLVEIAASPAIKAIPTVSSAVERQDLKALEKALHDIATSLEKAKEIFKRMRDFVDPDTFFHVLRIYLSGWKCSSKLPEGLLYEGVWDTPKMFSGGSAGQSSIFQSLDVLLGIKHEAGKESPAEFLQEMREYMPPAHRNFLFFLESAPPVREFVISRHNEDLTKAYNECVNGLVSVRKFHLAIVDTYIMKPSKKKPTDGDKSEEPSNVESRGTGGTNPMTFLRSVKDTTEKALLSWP", "assay": "Inhibition of mouse IDO1"}, "[3]": {"molecular_target": "Kynurenine 3-monooxygenase (Homo sapiens, UniProt O15229)", "sequence (O15229 whole entry)": "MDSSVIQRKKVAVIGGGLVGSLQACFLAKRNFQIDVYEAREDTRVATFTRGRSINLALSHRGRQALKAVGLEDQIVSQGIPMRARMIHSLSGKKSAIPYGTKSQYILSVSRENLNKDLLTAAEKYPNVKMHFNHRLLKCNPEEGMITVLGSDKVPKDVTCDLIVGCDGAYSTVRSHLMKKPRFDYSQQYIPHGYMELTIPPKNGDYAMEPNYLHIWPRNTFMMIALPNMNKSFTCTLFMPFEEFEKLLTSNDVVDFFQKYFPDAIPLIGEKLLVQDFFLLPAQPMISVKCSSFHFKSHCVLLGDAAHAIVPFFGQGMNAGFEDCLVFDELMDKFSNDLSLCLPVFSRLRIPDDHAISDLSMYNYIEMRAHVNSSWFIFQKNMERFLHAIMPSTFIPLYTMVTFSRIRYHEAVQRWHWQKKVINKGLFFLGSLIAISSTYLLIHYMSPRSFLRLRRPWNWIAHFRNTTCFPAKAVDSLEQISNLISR", "assay": "Inhibition of human KMO"}, "[4]": {"molecular_target": "T1, Kynurenine 3-monooxygenase (Saccharomyces cerevisiae (strain ATCC 204508 / S288c) (Baker's yeast), UniProt P38169)", "T1 sequence (P38169 whole entry)": "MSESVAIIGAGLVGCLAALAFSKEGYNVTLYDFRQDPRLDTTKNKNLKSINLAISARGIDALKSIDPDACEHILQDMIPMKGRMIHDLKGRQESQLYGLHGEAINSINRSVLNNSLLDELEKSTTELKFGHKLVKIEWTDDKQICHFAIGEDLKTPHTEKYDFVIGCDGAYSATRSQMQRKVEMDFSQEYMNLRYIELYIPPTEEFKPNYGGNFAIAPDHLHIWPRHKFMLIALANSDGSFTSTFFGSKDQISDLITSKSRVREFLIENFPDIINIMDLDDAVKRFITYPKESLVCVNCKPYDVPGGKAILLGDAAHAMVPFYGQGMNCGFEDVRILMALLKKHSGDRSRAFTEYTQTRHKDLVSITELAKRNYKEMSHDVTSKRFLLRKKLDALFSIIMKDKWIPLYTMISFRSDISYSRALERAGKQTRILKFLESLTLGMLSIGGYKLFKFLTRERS", "assay": "Inhibition of yeast KMO"}, "[5]": {"molecular_target": "Tryptophan 2,3-dioxygenase (Homo sapiens, UniProt P48775)", "sequence (P48775 whole entry)": "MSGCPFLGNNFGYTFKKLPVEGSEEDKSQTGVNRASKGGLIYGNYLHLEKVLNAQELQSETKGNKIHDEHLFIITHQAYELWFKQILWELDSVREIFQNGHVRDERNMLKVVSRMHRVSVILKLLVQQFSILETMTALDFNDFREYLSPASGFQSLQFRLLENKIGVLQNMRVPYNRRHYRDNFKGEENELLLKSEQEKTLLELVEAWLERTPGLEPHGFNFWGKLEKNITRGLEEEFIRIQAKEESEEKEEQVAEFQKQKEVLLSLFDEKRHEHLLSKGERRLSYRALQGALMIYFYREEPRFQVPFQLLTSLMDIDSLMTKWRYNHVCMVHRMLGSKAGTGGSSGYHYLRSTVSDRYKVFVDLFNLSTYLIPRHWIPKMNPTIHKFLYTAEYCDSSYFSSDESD", "assay": "Inhibition of TDO (unknown origin)"}, "[6]": {"molecular_target": "Kynurenine/alpha-aminoadipate aminotransferase, mitochondrial (Rattus norvegicus, UniProt Q64602)", "sequence (Q64602 whole entry)": "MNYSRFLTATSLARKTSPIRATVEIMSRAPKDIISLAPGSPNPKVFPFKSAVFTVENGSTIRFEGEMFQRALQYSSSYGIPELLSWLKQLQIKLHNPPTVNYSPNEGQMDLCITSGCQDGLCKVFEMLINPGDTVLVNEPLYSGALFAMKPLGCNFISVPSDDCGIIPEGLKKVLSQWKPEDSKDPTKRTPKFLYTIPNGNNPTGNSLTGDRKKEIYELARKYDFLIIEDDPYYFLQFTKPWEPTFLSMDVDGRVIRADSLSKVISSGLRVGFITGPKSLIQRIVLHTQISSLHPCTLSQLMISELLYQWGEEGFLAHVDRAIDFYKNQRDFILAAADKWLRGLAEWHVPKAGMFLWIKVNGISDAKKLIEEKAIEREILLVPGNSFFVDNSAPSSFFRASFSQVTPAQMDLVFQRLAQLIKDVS", "assay": "Inhibition of rat KAT-2"}, "[7]": {"molecular_target": "T2, Indoleamine 2,3-dioxygenase 2 (Homo sapiens, UniProt Q6ZQW0)", "T2 sequence (Q6ZQW0 whole entry)": "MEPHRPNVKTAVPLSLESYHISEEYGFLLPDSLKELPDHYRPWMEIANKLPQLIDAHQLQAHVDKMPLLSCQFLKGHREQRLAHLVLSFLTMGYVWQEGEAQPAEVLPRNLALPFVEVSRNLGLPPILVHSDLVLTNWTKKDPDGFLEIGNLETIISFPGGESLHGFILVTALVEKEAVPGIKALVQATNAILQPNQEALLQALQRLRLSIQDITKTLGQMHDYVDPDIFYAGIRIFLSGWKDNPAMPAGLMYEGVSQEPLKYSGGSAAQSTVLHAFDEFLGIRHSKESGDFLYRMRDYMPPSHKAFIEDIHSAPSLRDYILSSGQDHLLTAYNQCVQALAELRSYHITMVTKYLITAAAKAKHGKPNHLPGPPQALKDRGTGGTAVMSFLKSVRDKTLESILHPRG", "assay": "Inhibition of human IDO2"}}, "data": [{"compound": "Fc1ccc2c(/C=C/c3cccnc3)c[nH]c2c1", "values": [{"measurement": "IC50", "setting": "[1]", "value": 1460, "unit": "nM"}, {"measurement": "IC50", "setting": "[2]", "value": "> 80000", "unit": "nM"}]}, {"compound": "O=C(O)C1CC1C(=O)c1ccc(Cl)c(Cl)c1", "note": "(stereo unspecified)", "values": [{"measurement": "IC50", "setting": "[3]", "value": 20, "unit": "nM"}, {"measurement": "IC50", "setting": "[4]", "value": 74, "unit": "nM"}]}, {"compound": "O=C(CC1c2ccccc2-c2cncn21)C1CCCCC1", "note": "(stereo unspecified)", "values": [{"measurement": "IC50", "setting": "[5]", "value": "< 1000", "unit": "nM"}]}, {"compound": "Fc1ccc2c(/C=C/c3nnn[nH]3)c[nH]c2c1", "values": [{"measurement": "IC50", "setting": "[1]", "value": 1960, "unit": "nM"}, {"measurement": "IC50", "setting": "[2]", "value": "> 400000", "unit": "nM"}]}, {"compound": "CCS(=O)(=O)c1ccc(C(=O)C[C@H](N)C(=O)O)cc1", "values": [{"measurement": "IC50", "setting": "[6]", "value": 71000, "unit": "nM"}]}, {"compound": "O=C1NC(=O)/C(=C/c2cccc(-c3ccc4c5c3CCC(=O)N5CC4)c2)S1", "values": [{"measurement": "IC50", "setting": "[6]", "value": 13400, "unit": "nM"}]}, {"compound": "Cc1ccc(-c2csc3nnc(SCC(=O)Nc4ccc5c(c4)OCO5)n23)cc1", "values": [{"measurement": "IC50", "setting": "[5]", "value": "> 62500", "unit": "nM"}, {"measurement": "IC50", "setting": "[7]", "value": "> 250000", "unit": "nM"}]}]}
